According to PubChem BioAssay (NCI):
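Protocol summary: plate cells (96-well), add compound at 5 concentrations, incubate 48 h, interpolate endpoints linearly. TGI marks complete inhibition of growth.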

Key:
Test in all cases: inhibition of tumour cell growth, NCI panel, 48 h
[1] = system: HT29 colon
[2] = system: MALME-3M melanoma
[3] = system: LXFL 529 NSCLC
[4] = system: SK-MEL-5 melanoma
[5] = system: RXF 393 renal
[6] = system: SF-539 CNS
[7] = system: HOP-62 NSCLC
[8] = system: A498 renal
[9] = system: HOP-92 NSCLC
[10] = system: SR leukemia
[11] = system: SK-OV-3 ovarian
[12] = system: OVCAR-3 ovarian
[13] = system: NCI-H522 lung
[14] = system: OVCAR-8 ovarian
[15] = system: A549 NSCLC
[16] = system: HCT-116 colon
[17] = system: IGROV1 ovarian
[18] = system: M19-MEL melanoma
[19] = system: 786-0 renal
[20] = system: DLD-1 colon
[21] = system: UACC-62 melanoma
[22] = system: K-562 leukemia
[23] = system: HOP-18 NSCLC
[24] = system: U251 CNS
[25] = system: SN12C renal
[26] = system: RXF-631 renal
[27] = system: RPMI-8226 leukemia
[28] = system: SNB-75 CNS
[29] = system: HCC-2998 colon
[30] = system: SK-MEL-2 melanoma
[31] = system: EKVX NSCLC
[32] = system: NCI-H23 lung
[33] = system: CCRF-CEM leukemia
[34] = system: SF-268 CNS
[35] = system: KM12 colon
[36] = system: TK-10 renal
[37] = system: CAKI-1 renal
[38] = system: DMS 273 small cell lung
[39] = system: UACC-257 melanoma
[40] = system: SF-295 CNS
[41] = system: ACHN renal
[42] = system: MOLT-4 leukemia
[43] = system: NCI-H460 lung
[44] = system: M14 melanoma
[45] = system: UO-31 renal
[46] = system: COLO 205 colon
[47] = system: SNB-19 CNS
[48] = system: LOX IMVI melanoma
[49] = system: HCT-15 colon
[50] = system: KM20L2 colon
[51] = system: DMS 114 small cell lung
[52] = system: HL-60(TB) leukemia
[53] = system: SNB-78 CNS
[54] = system: OVCAR-5 ovarian
[55] = system: OVCAR-4 ovarian
[56] = system: SW-620 colon
[57] = system: NCI-H226 lung
[58] = system: SK-MEL-28 melanoma

Structure (SMILES): Cc1nc(N)nc(N)c1CCCCc1ccccc1
- TGI [1]: 16.9 µM
- TGI [2]: 26.5 µM
- TGI [3]: 73.8 µM
- TGI [4]: 17.1 µM
- TGI [5]: 49.8 µM
- TGI [6]: 36 µM
- TGI [7]: 56.4 µM
- TGI [8]: > 100 µM
- TGI [9]: 54.6 µM
- TGI [10]: 38.4 µM
- TGI [11]: > 100 µM
- TGI [12]: 99.4 µM
- TGI [13]: 31.6 µM
- TGI [14]: > 100 µM
- TGI [15]: > 100 µM
- TGI [16]: > 100 µM
- TGI [17]: > 100 µM
- TGI [18]: 30.6 µM
- TGI [19]: 19 µM
- TGI [20]: > 100 µM
- TGI [21]: 76.8 µM
- TGI [22]: 18.1 µM
- TGI [23]: > 100 µM
- TGI [24]: 51.4 µM
- TGI [25]: > 100 µM
- TGI [26]: 39.1 µM
- TGI [27]: 45.8 µM
- TGI [28]: > 100 µM
- TGI [29]: 22.7 µM
- TGI [30]: 40.9 µM
- TGI [31]: > 100 µM
- TGI [32]: 20.6 µM
- TGI [33]: 24.8 µM
- TGI [34]: 45.7 µM
- TGI [35]: > 100 µM
- TGI [36]: 88.7 µM
- TGI [37]: > 100 µM
- TGI [38]: 20.5 µM
- TGI [39]: 28.6 µM
- TGI [40]: > 100 µM
- TGI [41]: > 100 µM
- TGI [42]: 63.5 µM
- TGI [43]: 81.4 µM
- TGI [44]: 19.7 µM
- TGI [45]: > 100 µM
- TGI [46]: 21 µM
- TGI [47]: > 100 µM
- TGI [48]: 23.9 µM
- TGI [49]: 63.3 µM
- TGI [50]: 63.3 µM
- TGI [51]: 24.1 µM
- TGI [52]: 20 µM
- TGI [53]: > 100 µM
- TGI [54]: > 100 µM
- TGI [55]: > 100 µM
- TGI [56]: > 100 µM

Structure (SMILES): Cc1ccc(N=Nc2c(C)nn(-c3ccccc3)c2-c2ccccc2)c(Br)c1
- TGI [1]: > 100 µM
- TGI [2]: > 100 µM
- TGI [3]: > 100 µM
- TGI [57]: > 100 µM
- TGI [6]: > 100 µM
- TGI [7]: > 100 µM
- TGI [8]: > 100 µM
- TGI [9]: > 100 µM
- TGI [10]: > 100 µM
- TGI [11]: > 100 µM
- TGI [12]: > 100 µM
- TGI [13]: > 100 µM
- TGI [14]: > 100 µM
- TGI [15]: > 100 µM
- TGI [16]: > 100 µM
- TGI [17]: > 100 µM
- TGI [18]: > 100 µM
- TGI [19]: > 100 µM
- TGI [20]: > 100 µM
- TGI [21]: > 100 µM
- TGI [58]: > 100 µM
- TGI [22]: > 100 µM
- TGI [23]: > 100 µM
- TGI [25]: > 100 µM
- TGI [26]: > 100 µM
- TGI [28]: > 100 µM
- TGI [29]: > 100 µM
- TGI [30]: > 100 µM
- TGI [31]: > 100 µM
- TGI [33]: > 100 µM
- TGI [34]: > 100 µM
- TGI [35]: > 100 µM
- TGI [36]: > 100 µM
- TGI [37]: > 100 µM
- TGI [39]: > 100 µM
- TGI [40]: > 100 µM
- TGI [41]: > 100 µM
- TGI [42]: > 100 µM
- TGI [43]: > 100 µM
- TGI [44]: > 100 µM
- TGI [45]: > 100 µM
- TGI [47]: > 100 µM
- TGI [48]: > 100 µM
- TGI [49]: > 100 µM
- TGI [50]: > 100 µM
- TGI [52]: > 100 µM
- TGI [55]: > 100 µM
- TGI [56]: > 100 µM

Structure (SMILES): O=C1C(c2ccc([N+](=O)[O-])cc2)=[N+]([O-])c2ccc([N+](=O)[O-])cc21
- TGI [1]: > 100 µM
- TGI [3]: > 100 µM
- TGI [57]: > 100 µM
- TGI [4]: > 100 µM
- TGI [5]: > 100 µM
- TGI [6]: > 100 µM
- TGI [10]: > 100 µM
- TGI [11]: 83.2 µM
- TGI [12]: 55.8 µM
- TGI [14]: > 100 µM
- TGI [15]: > 100 µM
- TGI [17]: 76.9 µM
- TGI [18]: 88.2 µM
- TGI [19]: > 100 µM
- TGI [20]: > 100 µM
- TGI [21]: 47.5 µM
- TGI [58]: > 100 µM
- TGI [22]: > 100 µM
- TGI [23]: > 100 µM
- TGI [24]: > 100 µM
- TGI [26]: > 100 µM
- TGI [27]: > 100 µM
- TGI [28]: > 100 µM
- TGI [31]: > 100 µM
- TGI [32]: > 100 µM
- TGI [33]: 74.1 µM
- TGI [34]: > 100 µM
- TGI [35]: > 100 µM
- TGI [36]: > 100 µM
- TGI [38]: > 100 µM
- TGI [40]: > 100 µM
- TGI [41]: > 100 µM
- TGI [42]: > 100 µM
- TGI [43]: > 100 µM
- TGI [44]: > 100 µM
- TGI [45]: > 100 µM
- TGI [46]: > 100 µM
- TGI [47]: > 100 µM
- TGI [48]: > 100 µM
- TGI [51]: > 100 µM
- TGI [52]: 43.7 µM
- TGI [53]: > 100 µM
- TGI [54]: > 100 µM
- TGI [55]: > 100 µM
- TGI [56]: > 100 µM
